Values quoted from earlier work as cited in article PMC3734799 (ChemMedChem, 2011).

Target: YopH (Yersinia pestis, UniProt O68720)
Sequence (O68720 164-468 limits assumed): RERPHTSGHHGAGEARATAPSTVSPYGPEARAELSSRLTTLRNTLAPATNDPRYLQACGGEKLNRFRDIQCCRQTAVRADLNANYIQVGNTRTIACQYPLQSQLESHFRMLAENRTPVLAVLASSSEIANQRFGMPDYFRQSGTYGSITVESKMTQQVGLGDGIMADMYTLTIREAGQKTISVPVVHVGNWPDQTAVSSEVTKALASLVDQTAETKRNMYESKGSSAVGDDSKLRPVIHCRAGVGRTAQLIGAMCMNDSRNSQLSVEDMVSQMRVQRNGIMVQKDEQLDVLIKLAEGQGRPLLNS

Structure (SMILES): O=[N+]([O-])c1ccc(OP(=O)(O)O)cc1-c1ccccc1 [compound 1, 6-nitro-[1,1'-biphenyl]-3-yl dihydrogen phosphate]
- Km: 80 µM
